For the assay, the target named is T1, human mAChR M1 (Homo sapiens, UniProt P11229).
T1 sequence (P11229 1-460): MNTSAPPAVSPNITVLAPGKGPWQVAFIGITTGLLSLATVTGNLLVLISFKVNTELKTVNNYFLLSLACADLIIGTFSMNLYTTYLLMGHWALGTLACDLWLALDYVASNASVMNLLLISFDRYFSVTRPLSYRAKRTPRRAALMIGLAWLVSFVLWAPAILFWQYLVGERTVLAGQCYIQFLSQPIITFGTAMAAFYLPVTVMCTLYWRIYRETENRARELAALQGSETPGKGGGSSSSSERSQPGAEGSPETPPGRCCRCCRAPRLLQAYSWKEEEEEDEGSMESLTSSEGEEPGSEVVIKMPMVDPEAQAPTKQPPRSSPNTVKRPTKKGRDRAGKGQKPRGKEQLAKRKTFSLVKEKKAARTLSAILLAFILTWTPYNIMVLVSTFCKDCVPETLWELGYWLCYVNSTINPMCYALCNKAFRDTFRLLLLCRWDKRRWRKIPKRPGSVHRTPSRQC
The experiment in a line: mAChR M1 cell-based functional assay: calcium mobilization, positive allosteric modulator mode (increase in EC20 acetylcholine response). The note with it: for Emax: read-out: Human M1 Emax (%). An outline of the steps: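 PAM potency reflects the concentration-dependent increase in calcium response to an EC20 acetylcholine challenge, given 144 s into a 300 s read after compound addition at 4 s (EC80 follows at 230 s). Cells were hM1-expressing CHO-K1, loaded 50 min with Fluo-4 AM. Curves used 11 points at 1:3 dilutions and four-parameter logistic fitting.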

Where [1] appears, read: Table 2, human M1, read-out: Human M1 EC50.
Where [2] appears, read: Table 1, mAChR M1 cell-based functional assay, PAM mode, species not given, read-out: EC50.

Read-outs that look alike come from different tables or passages of the source.

As for `Cc1nc(-c2ccc(Cc3cc(C(=O)N[C@@H]4CCCC[C@H]4O)nc4ccsc34)cc2)co1` [Compound 168, N-[(1R,2R)-2-hydroxycyclohexyl]-7-[[4-(2-methyloxazol-4-yl)phenyl]methyl]thieno[3,2-b]pyridine-5-carboxamide], the concentration giving a half-maximal response (EC50) under setting [1] amounted to 84.2 nM. For the same compound, under “Table 2, human M1”, the Emax amounted to 82.6%. On the same counts, the results for `O=C(NC[C@@H]1CCCO1)c1cc(Cc2ccc(-n3cccn3)cc2)c2sccc2n1` [Compound 286, 7-[(4-pyrazol-1-ylphenyl)methyl]-N-[[(2S)-tetrahydrofuran-2-yl]methyl]thieno[3,2-b]pyridine-5-carboxamide] are 203 nM and 69.3%. On the same counts, the results for `Cc1nn(C)cc1-c1ccc(Cc2cc(C(=O)NC3CN(C(C)(C)C)C3)nc3ccsc23)cc1` [Compound 245, N-(1-tert-butylazetidin-3-yl)-7-[[4-(1,3-dimethylpyrazol-4-yl)phenyl]methyl]thieno[3,2-b]pyridine-5-carboxamide] are over 10000 nM and 16.2%.

In the case of “7-[[6-(1-methylpyrazol-4-yl)-3-pyridyl]methyl]-N-tetrahydropyran-4-yl-thieno[3,2-b]pyridine-5-carboxamide [Compound 301]”, the “Human M1 Emax (%)” value (Table 2, human M1) is on record as 71.87%. For the same compound, under setting [1], the EC50 was 42.3 nM. Regarding `O=C(N[C@@H]1CCOC1)c1cc(Cc2ccc(-c3nccs3)cc2)c2sccc2n1` [Compound 368], under setting [1], the EC50 amounted to 2300 nM. Under “Table 2, human M1”, the Emax is 65.6%. The matching figures for `Cn1ccc(-c2ccc(Cc3cc(C(=O)NC4CC(F)(F)C4)nc4ccn(C)c34)cn2)n1` [Compound 511, N-(3,3-difluorocyclobutyl)-1-methyl-7-[[6-(1-methylpyrazol-3-yl)-3-pyridyl]methyl]pyrrolo[3,2-b]pyridine-5-carboxamide;]: 1770 nM and 66.1%. On the same counts, the results for `O=C(N[C@H]1CCOC1)c1cc(Cc2ccc(-c3cscn3)cc2)c2sccc2n1` [Compound 208, N-[(3S)-tetrahydrofuran-3-yl]-7-[(4-thiazol-4-ylphenyl)methyl]thieno[3,2-b]pyridine-5-carboxamide] are 1880 nM and 80.3%.

As to `Cn1ccc(-c2ccc(Cc3cc(C(=O)NC[C@H]4CCCO4)nc4ccsc34)cn2)n1` [Compound 413, 7-[[6-(1-methylpyrazol-3-yl)-3-pyridyl]methyl]-N-[[(2R)-tetrahydrofuran-2-yl]methyl]thieno[3,2-b]pyridine-5-carboxamide], under setting [1], the EC50 came out at 191 nM. Moreover, where the note is “Table 2, human M1”, the Emax is 72.5%. Turning to `O=C(NC1CCC1)c1cc(Cc2ccc(-n3cccn3)cc2)c2sccc2n1` [Compound 436, N-cyclobutyl-7-[(4-pyrazol-1-ylphenyl)methyl]thieno[3,2-b]pyridine-5-carboxamide], under setting [1], the EC50 was determined as 1500 nM. Besides, the maximum response (Emax) (Table 2, human M1) came to 69.1%. As to `Cc1ccc(Oc2cc(C(=O)NC(C)C(C)(C)CO)nc3ccsc23)cn1` (stereo not shown) [Compound 34, N-(3-hydroxy-1,2,2-trimethyl-propyl)-7-[(6-methyl-3-pyridyl)oxy]thieno[3,2-b]pyridine-5-carboxamide], under setting [2], the EC50 is over 10000 nM. `Cn1ccc2nc(C(=O)N[C@H]3CCOC[C@@H]3O)cc(Cc3ccc(-c4nccs4)cc3)c21` [Compound 478, N-[(3R,4S)-3-hydroxytetrahydropyran-4-yl]-1-methyl-7-[(4-thiazol-2-ylphenyl)methyl]pyrrolo[3,2-b]pyridine-5-carboxamide]: the EC50 under setting [1] amounted to 6.24 nM. Further, the Emax (Table 2, human M1) is 53.2%. Turning to `O=C(NC1COC1)c1cc(Cc2ccc(-n3cccn3)cc2)c2sccc2n1` [Compound 279, N-(oxetan-3-yl)-7-[(4-pyrazol-1-ylphenyl)methyl]thieno[3,2-b]pyridine-5-carboxamide], the EC50 under setting [1] came out at 1050 nM. Where the note is “Table 2, human M1”, the maximum response (Emax) is 68.7%. The matching figures for `COCCNC(=O)c1cc(Cc2ccc(-c3cncs3)cc2)c2sccc2n1` [Compound 403, N-(2-methoxyethyl)-7-[(4-thiazol-5-ylphenyl)methyl]thieno[3,2-b]pyridine-5-carboxamide]: 6980 nM and 60.8%.

In the case of `Cn1ccc(-c2ccc(Cc3cc(C(=O)NC4CCOC(C)(C)C4)nc4ccn(C)c34)cn2)n1` (stereo not shown) [Compound 504, N-(2,2-dimethyltetrahydropyran-4-yl)-1-methyl-7-[[6-(1-methylpyrazol-3-yl)-3-pyridyl]methyl]pyrrolo[3,2-b]pyridine-5-carboxamide;], the EC50 under setting [1] is 1350 nM. Besides, the Emax (Table 2, human M1) came out at 79.5%. As to `COCCCNC(=O)c1cc(Cc2ccc(-c3cncs3)cc2)c2sccc2n1` [Compound 404, N-(3-methoxypropyl)-7-[(4-thiazol-5-ylphenyl)methyl]thieno[3,2-b]pyridine-5-carboxamide], the EC50 under setting [1] was found to be 3570 nM. Moreover, the Emax (Table 2, human M1) turned out to be 56.7%.

With `Cn1ccc(-c2ccc(Cc3cc(C(=O)N[C@@H]4CC[C@H]4O)nc4ccsc34)cn2)n1` [Compound 412], the EC50 under setting [1] worked out at 222 nM. In addition, the Emax (Table 2, human M1) was 69.1%. The matching figures for `O=C(NC1COC1)c1cc(Cc2ccc(-c3cncs3)cc2)c2sccc2n1` [Compound 402, N-(oxetan-3-yl)-7-[(4-thiazol-5-ylphenyl)methyl]thieno[3,2-b]pyridine-5-carboxamide]: over 10000 nM and 41.7%. Consider `Cc1ccc(Cc2cc(C(=O)N[C@H]3CCOC[C@@H]3O)nc3ccsc23)cn1` [Compound 45, N-[(3R,4S)-3-hydroxytetrahydropyran-4-yl]-7-[(6-methyl-3-pyridyl)methyl]thieno[3,2-b]pyridine-5-carboxamide], for which the EC50 under setting [2] came out at 80 nM. In the case of `Cc1csc2c(Cc3ccc(-n4cccn4)cc3)cc(C(=O)N[C@@H]3CCCC[C@H]3O)nc12` [Compound 116, N-[(1R,2R)-2-hydroxycyclohexyl]-3-methyl-7-[(4-pyrazol-1-ylphenyl)methyl]thieno[3,2-b]pyridine-5-carboxamide], the EC50 under setting [1] was 320 nM. Also, the maximum response (Emax) (Table 2, human M1) is 78.7%.

`Cc1csc2c(Cc3ccc(-n4cccn4)cc3)cc(C(=O)N[C@@H]3COCC[C@H]3O)nc12` [Compound 118]: the EC50 under setting [1] was determined as 134 nM. For the same compound, where the note is “Table 2, human M1”, the Emax turned out to be 83.7%. The matching figures for `Cc1csc2c(Cc3ccc(-n4cccn4)cc3)cc(C(=O)NC3CC4(COC4)C3)nc12` [Compound 315, 3-methyl-N-(2-oxaspiro[3.3]heptan-6-yl)-7-[(4-pyrazol-1-ylphenyl)methyl]thieno[3,2-b]pyridine-5-carboxamide]: 475 nM and 82.3%. The matching figures for `Cn1ccc2nc(C(=O)N[C@@H]3CCCOC3)cc(Cc3ccc(-c4cscn4)cc3)c21` [Compound 463, 1-methyl-N-[(3R)-tetrahydropyran-3-yl]-7-[(4-thiazol-4-ylphenyl)methyl]pyrrolo[3,2-b]pyridine-5-carboxamide]: 1010 nM and 71.9%. On the same counts, the results for `O=C(NC1CCOCC1)c1cc(C(F)c2ccc(-c3cscn3)cc2)c2sccc2n1` (stereo not shown) [Compound 332, 7-[fluoro-(4-thiazol-4-ylphenyl)methyl]-N-tetrahydropyran-4-yl-thieno[3,2-b]pyridine-5-carboxamide] are 56.9 nM and 69%. On to `Cc1ccc(Oc2cc(C(=O)NC(CO)C3CC3)nc3ccsc23)cn1` (stereo not shown) [Compound 30, N-(1-cyclopropyl-2-hydroxy-ethyl)-7-[(6-methyl-3-pyridyl)oxy]thieno[3,2-b]pyridine-5-carboxamide], for which the EC50 under setting [2] was over 10000 nM. Consider `Cc1nc(-c2ccc(Cc3cc(C(=O)N[C@@H]4CCC[C@H]4O)nc4ccsc34)cc2)co1` [Compound 159, N-[(1R,2R)-2-hydroxycyclopentyl]-7-[[4-(2-methyloxazol-4-yl)phenyl]methyl]thieno[3,2-b]pyridine-5-carboxamide], for which, under setting [1], the EC50 was determined as 141 nM. Moreover, the Emax (Table 2, human M1) turned out to be 80.5%. For the compound `Cc1csc2c(Cc3ccc(-c4ccn(C)n4)cc3)cc(C(=O)NC3CC(F)C3)nc12` (stereo not shown) [Compound 308, N-(3-fluorocyclobutyl)-3-methyl-7-[[4-(1-methylpyrazol-3-yl)phenyl]methyl]thieno[3,2-b]pyridine-5-carboxamide], the EC50 under setting [1] is 5360 nM. Further, for the setting “Table 2, human M1”, the Emax amounted to 62.1%. The matching figures for `O=C(NC1CC2(COC2)C1)c1cc(Cc2ccc(-n3cccn3)cc2)c2sccc2n1` [Compound 275, N-(2-oxaspiro[3.3]heptan-6-yl)-7-[(4-pyrazol-1-ylphenyl)methyl]thieno[3,2-b]pyridine-5-carboxamide]: 43 nM and 69.9%. Regarding `O=C(NC1CC(F)C1)c1cc(Cc2ccc(-c3cscn3)cc2)c2sccc2n1` (stereo not shown) [Compound 205, N-(3-fluorocyclobutyl)-7-[(4-thiazol-4-ylphenyl)methyl]thieno[3,2-b]pyridine-5-carboxamide], the EC50 under setting [1] amounted to 1720 nM. For the same compound, the maximal response (Emax) (Table 2, human M1) was 78%. Regarding `Cn1cc(-c2ccc(Cc3cc(C(=O)N[C@H]4CCOC4)nc4ccsc34)cc2)nn1` [Compound 151, 7-[[4-(1-methyltriazol-4-yl)phenyl]methyl]-N-[(3S)-tetrahydrofuran-3-yl]thieno[3,2-b]pyridine-5-carboxamide], the EC50 under setting [1] turned out to be 595 nM. Moreover, where the note is “Table 2, human M1”, the Emax is 88.4%.

The record behind these values is US11111251B2, “Positive allosteric modulators of the muscarinic acetylcholine receptor M1” (Vanderbilt University, priority 2016, dated 2021).
